# Experimental data reported in PubChem BioAssay (NCI).
# Where “and” joins values, the source holds several entries; their conditions need not be identical. Identical values can stand only once.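 Step 1: Grow cells in 96-well plates. Step 2: Expose to compound for 48 hours at 5 concentrations. Step 3: Interpolate endpoints linearly; if unreached, use highest concentration. GI50 is the concentration that inhibits growth by half. At the TGI there is no net growth.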
# Legend:
# Experiment in all cases: DTP human tumour cell line panel, 48 h
# [1] = test system: BT-549 breast
# [2] = test system: HCC-2998 colon
# [3] = test system: HS 578T breast
# [4] = test system: HT29 colon
# [5] = test system: M14 melanoma
# [6] = test system: MCF7 breast
# [7] = test system: RPMI-8226 leukemia
# [8] = test system: SF-295 CNS
# [9] = test system: SK-MEL-5 melanoma
# [10] = test system: SNB-75 CNS
Structure (SMILES),GI50 [1],TGI [1],GI50 [2],TGI [2],GI50 [3],TGI [3],GI50 [4],GI50 [5],TGI [5],GI50 [6],TGI [6],GI50 [7],TGI [7],GI50 [8],TGI [8],GI50 [9],TGI [9],GI50 [10],TGI [10],TGI [4]
COc1ccc(/C=C\c2cc(OC)c(OC)c(OC)c2)cc1OC(=O)c1cccc(Cn2cc(CCOC(=O)c3cccc(Cn4nnc5c4C(=O)c4ccccc4C5=O)c3)nn2)c1,< 0.01 µM,1.35 µM,0.0362 µM,> 47.8 µM,< 0.01 µM,21.4 µM,0.321 µM,< 0.01 µM,10.9 µM,0.0216 µM,> 70.5 µM,< 0.01 µM,> 100 µM,0.0316 µM,4.36 µM,< 0.01 µM,0.0474 µM,< 0.01 µM,22.1 µM,
NC(=O)C(NC=O)c1ccccc1 (stereo not drawn),,> 100 µM,,> 100 µM,,> 100 µM,,,> 100 µM,,> 100 µM,,,,> 100 µM,,> 100 µM,,> 100 µM,> 100 µM
COc1cc(C2CC(c3cc(C)ccc3C)=NN2c2ccc(S(=O)(=O)NC(=O)NCc3ccccc3)cc2)cc(OC)c1OC (stereo not drawn),3.08 µM,12.6 µM,2.63 µM,6.47 µM,2.68 µM,7.67 µM,3.87 µM,,,2.58 µM,9.56 µM,2.8 µM,9.11 µM,,,2.04 µM,4.36 µM,2.33 µM,9.32 µM,47.7 µM
COc1cccc(C2NC(=S)NC(C)=C2C(=O)Nc2ccc(F)c(Cl)c2)c1 (stereo not drawn),15.2 µM,46.1 µM,,,13.5 µM,40.2 µM,,25.2 µM,> 50 µM,20.2 µM,> 50 µM,11.6 µM,> 50 µM,22.4 µM,> 50 µM,13.3 µM,32.9 µM,,,
CC1=C(c2cc(C(=O)Nc3ccc(Cl)c(Cl)c3)nc(N)n2)Sc2ccccc2N1,,,,> 100 µM,,,,,> 100 µM,,,,> 100 µM,,> 100 µM,,> 100 µM,,> 100 µM,> 100 µM
CC[O-].Cc1ccc2cccc([O-])c2n1.Cc1ccc2cccc([O-])c2n1.Cc1ccc2cccc([O-])c2n1.[Ti+4],,,27.5 µM,> 67.8 µM,,,30.6 µM,22.2 µM,> 53.5 µM,,,11.5 µM,49.5 µM,17.5 µM,> 62 µM,22.6 µM,52 µM,63.8 µM,> 100 µM,> 88.9 µM
CNc1ccc(-c2cc(=O)oc3ccc(Cl)cc23)cc1,0.102 µM and 0.044 µM,3.02 µM,0.373 µM and 0.127 µM,17.1 µM,0.083 µM and 0.0725 µM,,0.297 µM and 0.139 µM,0.0393 µM and 0.0313 µM,> 100 µM,0.229 µM and 0.151 µM,> 100 µM,0.194 µM and 0.154 µM,33.9 µM,0.0479 µM and 0.0322 µM,> 100 µM,0.121 µM and 0.0772 µM,1.11 µM and 2.56 µM,,,0.496 µM
CN(C)CCN=Cc1c2ccccc2c(=O)n2c1oc1ccccc12,7.61 µM,21.1 µM,12.2 µM,24.6 µM,,,4.56 µM,15.2 µM,31.2 µM,,,11.3 µM,> 100 µM,2.89 µM,9.71 µM,2.89 µM,16.1 µM,7.55 µM,22.2 µM,19.4 µM
C=C1Oc2nc3ccccc3c(=O)n2C1(C)C,,,,> 100 µM,,,,,> 100 µM,,,,> 100 µM,,> 10 µM,,> 100 µM,,,> 100 µM
O=C(O)CCC1(Br)CCCCC(Br)C1=O (stereo not drawn),,,,> 100 µM,,,,,> 100 µM,,,,> 100 µM,,> 100 µM,,> 100 µM,,> 100 µM,> 100 µM
CN(c1ccccc1)C1C(=O)N(c2ccccc2)C1/C=C/c1ccccc1 (stereo not drawn),,,,> 100 µM,,,,,,,,,> 100 µM,,> 100 µM,,> 100 µM,,> 100 µM,> 100 µM
CC(=O)OCC1OC(OC2=C(CC=C(Cl)Cl)C(=O)c3ccccc3C2=O)C(OC(C)=O)C(OC(C)=O)C1OC(C)=O (stereo not drawn),7.03 µM,20.4 µM,6.96 µM,20.9 µM,3.98 µM,32.2 µM,16 µM,12.6 µM,28 µM,,,2.05 µM,6.78 µM,16.3 µM,31.4 µM,4.32 µM,17 µM,2.68 µM,19.9 µM,60.5 µM
NCC1OC(OC2C(CO)OC(OC3C(O)C(N)CC(N)C3OC3OC(CO)C(O)C(O)C3N)C2O)C(N)C(O)C1O (stereo not drawn),> 50 µg/mL,> 50 µg/mL,> 50 µg/mL,> 50 µg/mL,> 50 µg/mL,> 50 µg/mL,> 50 µg/mL,> 50 µg/mL,> 50 µg/mL,> 50 µg/mL,> 50 µg/mL,> 50 µg/mL,> 50 µg/mL,> 50 µg/mL,> 50 µg/mL,,,> 50 µg/mL,> 50 µg/mL,> 50 µg/mL
O=C(O)C#CCO,,,,,,,,,> 100 µM,,,,> 100 µM,,> 100 µM,,> 100 µM,,> 100 µM,> 100 µM
CCc1c(Cl)nc(Cl)nc1Cl,,0.133 µM,,0.774 µM,,,,,0.99 µM,,0.258 µM,,0.252 µM,,5.84 µM,,1.39 µM,,4.21 µM,1.3 µM
CC1=C([Se]CC(OC(=O)[C@@H](CO)NC(=O)OC(C)(C)C)C(=O)NC(C)(C)C)C(=O)c2ccccc2C1=O (stereo partly drawn),1.59 µM,2.93 µM,1.82 µM,3.23 µM,,,2.3 µM,1.66 µM,3.04 µM,1.75 µM,3.97 µM,2.74 µM,8.91 µM,0.316 µM,1.06 µM,1.59 µM,2.97 µM,1.3 µM,2.6 µM,4.74 µM
COC(=O)C1CCC(Nc2cccc(C(F)(F)F)c2)=N1 (stereo not drawn),,,,> 100 µM,,,,,> 100 µM,,,,> 100 µM,,> 100 µM,,,,> 100 µM,> 100 µM
O=c1c2ccccc2c(=O)c2c1cc(Cl)c1[nH]c3c([nH]c12)c(Cl)cc1c(=O)c2ccccc2c(=O)c13,,,,> 100 µM,,,,,> 100 µM,,,,> 100 µM,,> 100 µM,,,,> 100 µM,> 100 µM
O=C(O)C1c2ccccc2C(C(=O)O)c2ccccc21 (stereo not drawn),,,,> 100 µM,,,,,> 100 µM,,,,> 100 µM,,> 100 µM,,> 100 µM,,> 100 µM,> 100 µM
Cc1cc(C(=O)N2CCN(Cc3ccccc3)CC2)c(C)o1,,,,> 100 µM,,,,,> 100 µM,,,,> 100 µM,,> 100 µM,,> 100 µM,,> 100 µM,> 100 µM

Structure (SMILES),GI50 [1],TGI [1],GI50 [2],TGI [2],GI50 [3],TGI [3],GI50 [4],GI50 [5],TGI [5],GI50 [6],TGI [6],GI50 [7],TGI [7],GI50 [8],TGI [8],GI50 [9],TGI [9],GI50 [10],TGI [10],TGI [4]
COc1cccc(NC(=O)CC(=O)N2NC(C)C(N=Nc3cccc(C(=O)O)c3)C2=O)c1 (stereo not drawn),,,,> 100 µM,,,,,> 100 µM,,,,> 100 µM,,> 100 µM,,> 100 µM,,> 100 µM,> 100 µM
COc1c(CNC(=O)CCl)cc2[nH]c(C)cc2c1CNC(=O)CCl,17 µM,35.2 µM,13.2 µM,30.4 µM,4.97 µM,76.8 µM,5.97 µM,,,2.81 µM,20.9 µM,5.17 µM,52.8 µM,12.8 µM,71.9 µM,8.02 µM,25 µM,6.43 µM,33 µM,25.2 µM
CCC[CH2][Sn]([CH2]CCC)([O]C(=O)c1nccnc1N)[O]C(=O)c1nccnc1N,,,1.21 µM,2.45 µM,,,1.59 µM,1.23 µM,2.49 µM,,,,,1.26 µM,2.52 µM,1.24 µM,2.49 µM,0.87 µM,2.12 µM,3.05 µM
O=S1(=O)CS(=O)(=O)OCCCO1,,,,> 100 µM,,> 100 µM,,,> 100 µM,,> 100 µM,,> 100 µM,,> 100 µM,,> 100 µM,,> 100 µM,> 100 µM
Clc1ccc(OC2CCO2)cc1Cl (stereo not drawn),,,,> 100 µM,,,,,> 100 µM,,,,> 100 µM,,> 100 µM,,> 100 µM,,> 100 µM,> 100 µM
C/C(=N/NC(=O)C(N)=O)C(CC(C(=O)Nc1ccccc1C)/C(C)=N\NC(=O)C(N)=O)C(=O)Nc1ccccc1C (stereo not drawn),,,,> 100 µM,,,,,> 100 µM,,,,> 100 µM,,> 100 µM,,> 100 µM,,> 100 µM,> 100 µM
Cc1cc(NS(=O)(=O)c2ccc(NC(=O)c3cccc4c(Nc5ccc(S(=O)(=O)Nc6cc(C)on6)cc5)c5ccccc5nc34)cc2)no1,,,,,,,,,> 100 µM,,,,> 100 µM,,> 100 µM,,> 100 µM,,77.4 µM,> 100 µM
N#CCC(=O)N/N=C1\C(=O)N(c2ccc(Cl)cc2)C(=O)C(=O)C1c1nc2ccccc2o1 (stereo not drawn),,,,> 100 µM,,,,,> 100 µM,,,,,,> 100 µM,,> 100 µM,,> 100 µM,> 100 µM
COC(=O)[C@@]1(C)CC[C@]2(C)CC[C@]3(C)C4=CC=C5C(=CC(=O)C(O)=C5C)[C@]4(C)CC[C@@]3(C)[C@@H]2C1,0.36 µM,0.889 µM,0.21 µM,0.474 µM,0.289 µM,1.52 µM,0.207 µM,0.198 µM,0.49 µM,,,0.183 µM,0.517 µM,0.407 µM,1.62 µM,0.2 µM,0.57 µM,0.313 µM,0.854 µM,0.445 µM
CC(=O)OC1C(CCl)OC(N=[N+]=[N-])C(OC(C)=O)C1OC(C)=O (stereo not drawn),,,,> 100 µM,,,,,> 100 µM,,,,> 100 µM,,> 100 µM,,> 100 µM,,> 100 µM,> 100 µM
CC1(C)CC2C=C(C=O)C3(C=O)CC3(C)C2C1 (stereo not drawn),,3.37 µM,,18.2 µM,,,,,5.24 µM,,5.27 µM,,3.95 µM,,18.8 µM,,3.51 µM,,7.56 µM,4.54 µM
CC(C)(C)[Si](C)(C)O/N=C\c1ccc(O[Si](C)(C)C(C)(C)C)cc1,,,,> 100 µM,,,,,> 100 µM,,,,> 100 µM,,> 100 µM,,> 100 µM,,> 100 µM,> 100 µM
COc1ccc2c(=O)c3cc([N+](=O)[O-])ccc3n(C)c2c1,,> 100 µM,,> 100 µM,,> 100 µM,,,> 100 µM,,> 100 µM,,> 100 µM,,> 100 µM,,> 100 µM,,> 100 µM,
CN1c2ccccc2S(=O)(=O)n2c(COc3ccc(Cl)cc3)nnc21,,> 100 µM,,> 100 µM,,> 100 µM,,,> 100 µM,,> 100 µM,,,,92.7 µM,,> 100 µM,,,> 100 µM
C=C1C(=O)O[C@@H]2C[C@@H]1CC[C@@]1(C)O[C@@H]1CC[C@@]1(C)O[C@@H]1CC[C@@]2(C)O,22.1 µM,59.6 µM,4.21 µM,21.1 µM,21.6 µM,61.2 µM,21 µM,21.4 µM,42.4 µM,55.2 µM,> 100 µM,14.4 µM,79.7 µM,19.6 µM,60.6 µM,16.2 µM,31.4 µM,,,63.2 µM
C[C@H]1CC(=O)C2=CCCC3(SCCCS3)[C@@H]2[C@H]1CO,,,,> 100 µM,,,,,> 100 µM,,,,> 100 µM,,> 100 µM,,> 100 µM,,> 100 µM,> 100 µM
COc1cc2cc[n+]3c4cc(OC)c(OC)cc4c(C)cc3c2cc1OC,,,,> 100 µM,,,,,> 100 µM,,,,> 100 µM,,> 100 µM,,> 100 µM,,> 100 µM,> 100 µM
Cc1cc(C)cc(Sc2c([N+](=O)[O-])ncn2C)c1,,,,92.7 µM,,,,,27.6 µM,,,,> 100 µM,,70.8 µM,,26.7 µM,,62.5 µM,38.7 µM
COc1ccc(Cc2cnc(NC(=O)c3sc4ccccc4c3Cl)s2)cc1,1.18 µM,> 100 µM,0.547 µM,> 100 µM,0.336 µM,> 100 µM,0.37 µM,,,0.355 µM,> 100 µM,0.435 µM,> 42.7 µM,0.383 µM,> 100 µM,0.335 µM,3.56 µM,0.2 µM,> 100 µM,> 100 µM
